One may read the melting point as the temperature of the solid-liquid transition.

Our source for the melting point values is a melting point compilation (Tetko et al.; mined from patent text by program, amines drawn as free bases though some values may be those of a salt).

On to `CCOC(=O)C1(c2ccc(Cl)cc2)CCN(C(=O)CC(c2ccccc2)(c2ccccc2)c2ccccc2)CC1`, for which the melting point lay in the range of 95 to 98 °C.
With `Cc1cc(=O)c2ccc(OCCCN3CCC(NC(=O)c4ccccc4)CC3)cc2o1`, the melting point lay within 173 to 175 °C.
Molecule `CC(C)N1C(=O)NC(c2ccc3ocnc3c2)c2cc3c(cc21)OCO3` (stereo not given) came in with a melting point of 84 to 86 °C.
The figure for `Cc1oc(-c2ccccc2)nc1CCOc1ccc(C[C@@H](C(=O)O)n2cccc2)cc1` is 155 to 156 °C; for `O=C(O)c1cc(OCC(F)(F)F)c(Cl)cc1[N+](=O)[O-]` it is 153 to 155 °C; for `N#CCCSN1C(=O)c2ccccc2C1=O` it is 162 to 164 °C.
The figure for `Cc1ccc(S(=O)(=O)OCC(O)Cc2cc(Cl)c3ccccc3c2OCc2ccccc2)cc1` (stereo not given) is 85 to 87 °C.
The figure for `CC(=O)Nc1cc(F)ccc1O` is 185 to 186 °C; for `COC(=O)c1ccc(OCCC2CC(=O)N(c3ccc(Cl)cc3)C2)cc1` (stereo not given) it is 126 to 128 °C; for `CN1CCN(c2c(Br)cc3c4c(cccc24)C(=O)N(O)C3=O)CC1` it is 184 to 186 °C.
Consider `Cc1cccc(Nc2cc(Nc3ccc(OCC(=O)N(CCO)CCO)cc3)ncn2)c1`, for which the melting point lay in the range of 160 to 162 °C.
The figure for `C#Cc1ccc([Si](OC)(OC)OC)cc1` is 38 to 39 °C; for `CN1CCC(c2c[nH]c3ccc(OS(=O)(=O)c4ccccc4F)cc23)CC1` it is 180 to 182 °C.
The figure for `CCOc1cc2cc(C(=O)OC)c(C(=O)OC)c(-c3ccnc(Br)c3)c2cc1OC` is 203 to 204 °C.
Molecule `CN1CCC(=O)C(C2c3ccccc3Oc3ccccc32)C1` (stereo not given) yielded a melting point of 160 to 162 °C.
Turning to `CCCN1CCN(Cc2ccc3c(c2)-c2[nH]nc(-c4ccsc4)c2C3)CC1`, the melting point lay within 185 to 187 °C.
The figure for `O=C=NCCC12CCCn3c1c(c1ccccc13)CCO2` (stereo not given) is 89 to 91 °C.
The molecule `COc1ccc(CN2CCN(CCC(c3ccccc3)c3ccccc3)CC2)cc1OC` displayed a melting point of 98 to 104 °C.
The figure for `CC(C)OC(=O)C1=C2SCC(=CC(=O)N3CCCCC3)N2CC1` is 128 to 130 °C; for `C[Si](C)(C)C#Cc1ccc(C#Cc2ccc(F)cc2)cc1` it is 144 to 146 °C.
The figure for `Cn1cc(S(C)(=O)=O)c(=O)c2ccc(F)cc21` is 222 to 224 °C; for `O=C(O)C1CSC(c2cc(Cl)ccc2OCCO[N+](=O)[O-])N1` (stereo not given) it is 134 to 135 °C; for `COc1ccc(Cl)c(OC)c1C(=O)O` it is 132 to 133 °C.
The figure for `N#Cc1ccc2c(c1)Sc1ccccc1C=C2` is 108 to 110 °C; for `O=S(=O)(c1ccc(Cl)cc1)N1CCC[C@@H](Nc2nccc(-c3c(-c4cccc(CO)c4)nc4sccn34)n2)C1` it is 150 to 155 °C; for `NCc1cccc(CNc2ncc3ncnc(Nc4ccc(F)c(Cl)c4)c3n2)c1` it is 179 to 182 °C.
`Cc1cc(O)cc(O)c1C(=O)NNC(=O)C(O)c1ccccc1` (stereo not given): the melting point was 188 to 189 °C.
Molecule `C#CC1(O)CCN(CC=C(c2ccccc2)c2ccccc2)CC1` showed a melting point of 122 to 123 °C.
Consider `CCCCCCCCCCCCCCCCCCS(=O)(=O)c1cc2ccccc2cc1O`, for which the melting point was in the range of 98 to 99 °C.
The figure for `O=C(O)c1cccc(-c2ccc3occ(-c4ccc(Cl)cc4Cl)c3c2)c1` is 271 to 272 °C.
The figure for `COCc1c(C(=O)c2ccccc2)ncc2[nH]c3ccc(Oc4nccc5ccccc45)cc3c12` is 159 to 160 °C.
In turn, `CCC1c2cccn2-c2ccc(C(F)(F)F)cc2N1S(=O)(=O)c1ccc(O)cc1` (stereo not given) gave a melting point of 181 to 183 °C.
The figure for `CC(C)c1sc(C#N)c2c1C(=O)CC(C)(C)C2` is 59 to 60 °C; for `O=c1[nH]ncc2c(OCC3CO3)cccc12` (stereo not given) it is 173 to 174 °C.
The figure for `CC(C#N)=C1CCN(c2ccc(N3C[C@H](CNC(=O)CC#N)OC3=O)cc2F)CC1` is 194 to 196 °C.
